Test results taken from publication PMC8437966, “Structure and function relationship of OqxB efflux pump from Klebsiella pneumoniae” (Nature Communications, 2021).
In brackets after ≈: the same amount, converted by molar mass.

Key:
Escherichia coli BW25113 = test system: Escherichia coli BW25113
Method: (§1) MIC (Minimum Inhibitory Concentration) was determined according to CLSI guidelines, as discussed elsewhere. Briefly, the strains were streaked on LB-Agar plates with Ampicillin (100 µg/mL) from glycerol stocks maintained at −80 °C and allowed to grow overnight at 37 °C. A single colony of each strain was picked from the fresh plates and grown in MHB No.2 Control Cations Hi-Media (MHB) with Ampicillin (100 µg/mL). Phe-Arg β-Naphthylamide (PAβN; Sigma-Aldrich, Catalog no.# P4157) was used at a final concentration of 20 µg/mL, wherever mentioned. The AcrAB and OqxAB expression are under a […] promoter, and AcrB and OqxB were induced with 100 μM of IPTG (Amresco, Catalog no.# 0487-10 G). Antibiotics and their two-fold dilution series were prepared in DMSO. Three microliters compound from each of the dilutions and 150 μL (3–7 × 10^5 CFU/mL) of bacterial culture were added to a flat bottom 96 well microtiter plates to obtain final antibiotic concentrations ranging from 0.03 µg/mL to 160 µg/mL. The plates were packed in gas permeable polythene bags and incubated at 37 °C for 16–18 h. MIC was determined as the concentration at which no bacterial growth was observed as ascertained by absorbance (A600nm) with a spectrophotometer. In the case of the wild-type strain and clinical isolates, 90% growth inhibition was used for MIC determination. […] All experiments were performed in triplicates and the data reported in this work is representative of the same. OqxB, the RND efflux pump component, is associated with increased resistance in clinical isolates of E. coli and K. pneumoniae. To understand the efflux liability for fluoroquinolones in E. coli in the clinic, 84 recent clinical isolates were evaluated by MIC experiments (at St. John’s Medical Hospital, Bengaluru, India). […] To delineate the cause of the resistance, the Quinolone-resistance determining regions (QRDR) of gyrA and parC were sequenced. […] Therefore, complementation experiments in “sensitive strains” were undertaken to further probe the role of OqxB in efflux towards fluoroquinolone resistance.

Escherichia coli SEC030 [1] = test system: Escherichia coli SEC030
Method: as §1

Escherichia coli SEC037 [2] = test system: Escherichia coli SEC037
Method: as §1

Escherichia coli SEC086 [3] = test system: Escherichia coli SEC086
Method: as §1

Escherichia coli SEC010 = test system: T1, Escherichia coli SEC010; design: CLSI broth microdilution MIC, 96-well, absorbance at 600 nm
T1 construct: SEC010
Method: as §1

Escherichia coli SEC032 [4] = test system: T2, Escherichia coli SEC032; design: CLSI broth microdilution MIC, 96-well, absorbance at 600 nm
T2 construct: SEC032
Method: as §1

Escherichia coli SEC045 [5] = test system: T3, Escherichia coli SEC045; design: CLSI broth microdilution MIC, 96-well, absorbance at 600 nm
T3 construct: SEC045
Method: as §1

Escherichia coli SEC052 = test system: T4, Escherichia coli SEC052; design: CLSI broth microdilution MIC, 96-well, absorbance at 600 nm
T4 construct: SEC052
Method: as §1

Escherichia coli SEC056 = test system: T5, Escherichia coli SEC056; design: CLSI broth microdilution MIC, 96-well, absorbance at 600 nm
T5 construct: SEC056
Method: as §1

Escherichia coli SEC063 = test system: T6, Escherichia coli SEC063; design: CLSI broth microdilution MIC, 96-well, absorbance at 600 nm
T6 construct: SEC063
Method: as §1

Escherichia coli SEC030 [6] = test system: T7, Escherichia coli SEC030; experiment: microbe, parasite or virus in culture; design: species or system Escherichia coli clinical isolates; CLSI broth microdilution MIC on E. coli clinical isolates, A600 read-out, 90% growth inhibition; details: SEC030, read-out: MIC VALUES / Ampicillin
T7 construct: SEC030
Method: as §1

Escherichia coli SEC032 [7] = test system: T2, Escherichia coli SEC032; experiment: microbe, parasite or virus in culture; design: species or system Escherichia coli clinical isolates; CLSI broth microdilution MIC on E. coli clinical isolates, A600 read-out, 90% growth inhibition; details: SEC032, read-out: MIC VALUES / Ampicillin
Method: as §1

Escherichia coli SEC037 [8] = test system: T8, Escherichia coli SEC037; experiment: microbe, parasite or virus in culture; design: species or system Escherichia coli clinical isolates; CLSI broth microdilution MIC on E. coli clinical isolates, A600 read-out, 90% growth inhibition; details: SEC037, read-out: MIC VALUES / Ampicillin
T8 construct: SEC037
Method: as §1

Escherichia coli SEC045 [9] = test system: T3, Escherichia coli SEC045; experiment: microbe, parasite or virus in culture; design: species or system Escherichia coli clinical isolates; CLSI broth microdilution MIC on E. coli clinical isolates, A600 read-out, 90% growth inhibition; details: SEC045, read-out: MIC VALUES / Ampicillin
Method: as §1

Escherichia coli SEC046 = test system: T9, Escherichia coli SEC046; experiment: microbe, parasite or virus in culture; design: species or system Escherichia coli clinical isolates; CLSI broth microdilution MIC on E. coli clinical isolates, A600 read-out, 90% growth inhibition; details: SEC046, read-out: MIC VALUES / Ampicillin
T9 construct: SEC046
Method: as §1

Escherichia coli SEC050 = test system: T10, Escherichia coli SEC050; experiment: microbe, parasite or virus in culture; design: species or system Escherichia coli clinical isolates; CLSI broth microdilution MIC on E. coli clinical isolates, A600 read-out, 90% growth inhibition; details: SEC050, read-out: MIC VALUES / Ampicillin
T10 construct: SEC050
Method: as §1

Escherichia coli SEC086 [10] = test system: T11, Escherichia coli SEC086; experiment: microbe, parasite or virus in culture; design: species or system Escherichia coli clinical isolates; CLSI broth microdilution MIC on E. coli clinical isolates, A600 read-out, 90% growth inhibition; details: SEC086, read-out: MIC VALUES / Ampicillin
T11 construct: SEC086
Method: as §1

Compound	Linezolid MIC without PAβN (Escherichia coli BW25113) [µg/mL]	Linezolid MIC without PAβN (Escherichia coli SEC030 [1]) [µg/mL]	Linezolid MIC without PAβN (Escherichia coli SEC037 [2]) [µg/mL]	Linezolid MIC without PAβN (Escherichia coli SEC086 [3]) [µg/mL]	Linezolid MIC without PAβN (Escherichia coli SEC010) [µg/mL]	Linezolid MIC without PAβN (Escherichia coli SEC032 [4]) [µg/mL]	Linezolid MIC without PAβN (Escherichia coli SEC045 [5]) [µg/mL]	Linezolid MIC without PAβN (Escherichia coli SEC052) [µg/mL]	Linezolid MIC without PAβN (Escherichia coli SEC056) [µg/mL]	Linezolid MIC without PAβN (Escherichia coli SEC063) [µg/mL]	MIC (Escherichia coli SEC030 [6]) [µg/mL]	MIC (Escherichia coli SEC032 [7]) [µg/mL]	MIC (Escherichia coli SEC037 [8]) [µg/mL]	MIC (Escherichia coli SEC045 [9]) [µg/mL]	MIC (Escherichia coli SEC046) [µg/mL]	MIC (Escherichia coli SEC050) [µg/mL]	MIC (Escherichia coli SEC086 [10]) [µg/mL]
CC(=O)NC[C@H]1CN(c2ccc(N3CCOCC3)c(F)c2)C(=O)O1 [Linezolid]	200	400	200	200	400	400	200	200	200	400							
CC1(C)S[C@@H]2[C@H](NC(=O)[C@H](N)c3ccccc3)C(=O)N2[C@H]1C(=O)O [ampicillin]											2 (≈ 5.72 µM)	8 (≈ 22.9 µM)	2 (≈ 5.72 µM)	4 (≈ 11.4 µM)	8 (≈ 22.9 µM)	8 (≈ 22.9 µM)	4 (≈ 11.4 µM)
